This note sets out measurements from patent EP4696306A1, “ADENOSINE TRIPHOSPHATE SECRETION INHIBITOR, HEPATIC STELLATE CELL ACTIVATION INHIBITOR, HEPATIC STELLATE CELL DEACTIVATOR, HEPATIC FIBROSIS THERAPEUTIC AGENT, NON-ALCOHOLIC STEATOHEPATITIS THERAPEUTIC AGENT, PSORIASIS THERAPEUTIC AGENT, AND USE OF COMPOUND FOR PRODUCING ADENOSINE TRIPHOSPHATE …” (KURUME UNIVERSITY, priority 2023, dated 2024).

The test system of experiment [1] is ATP transport activity in isolated chromaffin granule membranes. As to the kind of experiment: ATP transport (3H-ATP uptake) in chromaffin granule membrane vesicles. It is filed as biochemical, bovine. To be noted: N = 3. How it is done:
(§1) Chromaffin granule membranes were prepared from adrenal glands collected from slaughtered cattle according to Reference A (Nathan Nelson et al., 1988, Chromaffin Granule Proton Pump, Methods in Enzymology, 157, 619-633). Chromaffin granule membranes prepared by sucrose density gradient centrifugation were suspended in 2 ml of SME buffer (20 mM MOPS-tris (pH 7.0), 0.3 M sucrose, 5 mM EDTA, 10 µg/ml leupeptin, and 10 µg/ml pepstatin) + 25% glycerol, and the resulting suspension was aliquoted and stored at -80°C. Under these conditions, the ATP transport activity, the V-ATPase activity, and the catecholamine transport activity remain fully active for at least one year.
An ATP transport inhibition experiment for the chromaffin granule membrane was carried out according to Reference B (Yoshinori Moriyama et al., 2022, Is the vesicular nucleotide transporter a molecular target of eicosapentaenoic acid?, Frontiers in Pharmacology, 103389). About 20 µg of chromaffin granule membranes were added to 0.5 ml of measurement buffer (20 mM MOPS-tris (pH 7.0), 0.3 M sucrose, 5 mM potassium chloride, 5 mM magnesium acetate, 5 mM creatine phosphate, 10 units of creatine kinase, and 1 mM ^3[H]-ATP [15 KBq/assay]), followed by incubation at 30°C for 1 hour. Through a Millipore MCE membrane filter with a pore size 0.45 µm, 0.2 ml of the reaction liquid was filtered by suction. Thereafter, the filter was washed with 10 ml of 20 mM MOPS-tris (pH 7.0), 0.3 M sucrose, 5 mM potassium chloride, and 5 mM magnesium acetate, and dissolved in 10 ml of Clear-sol II (manufactured by Nacalai Tesque, Inc.). The radioactivity was then measured using a liquid scintillation counter (N = 3).
The reaction was initiated by adding 50 mM ^3[H]-ATP to a final concentration of 1 mM. The 50 mM ^3[H]-ATP was prepared by mixing an ATP-tris solution (manufactured by Sigma-Aldrich) with [2,8-^3H] adenosine triphosphate tetrasodium salt (26.0 Ci/mmol) (manufactured by New England Nuclear). PEP was used as a test reagent, and pyruvic acid was used as a negative control. Five minutes before the addition of ATP, PEP or pyruvic acid, as a solution in 20 mM MOPS-tris (pH 7.0), 0.3 M sucrose, 5 mM potassium chloride, and 5 mM magnesium acetate, was added to the measurement liquid to a final PEP concentration of 0.02, 0.05, 0.1, 0.2, 0.4, or 1 mM, or to a final pyruvic acid concentration of 0.5 or 1 mM.
(§2) Chromaffin granule membrane vesicles were prepared in the same manner as in Example 5, and uptake of radiolabeled ATP into the vesicles was measured. Transport activity of catecholamine (dopamine) and ATP-dependent proton transport by V-ATPase were also measured in the same manner as in Example 5.

Experiment [2] concerns catecholamine transport. As to the kind of experiment: Catecholamine (3H-dopamine) transport in chromaffin granule membranes. It is filed as biochemical, bovine. To be noted: MANT-ATP; N = 3. How it is done: as §1
A catecholamine transport inhibition experiment was carried out in the same manner as the ATP transport experiment except that the experiment used a measurement liquid containing 20 mM MOPS-tris (pH 7.0), 0.1 M sucrose, 0.1 M potassium chloride, 5 mM magnesium acetate, and about 5 µg of chromaffin granule membranes. To 0.5 ml of the measurement liquid, 2 mM ATP was added, and the resulting mixture was incubated at 30°C for about 5 minutes, followed by addition of^3 [H]-dopamine thereto to a final concentration of 10 µM. After further incubation at 30°C for 15 minutes, 0.2 ml of the reaction liquid was subjected to suction filtration through a Millipore MCE membrane filter with a pore size of 0.45 µm, and the radioactivity on the filter was measured (N = 3). The substrate, ^3[H]-dopamine, was prepared by mixing 3,4-[RING-2,5,6-^3H]dihydroxyphenylethylamine (dopamine) (30 Ci/mmol) (manufactured by New England Nuclear) with dopamine hydrochloride (manufactured by LKT Laboratories) such that a final concentration of 0.1 mM was achieved during the use.
as §2

The target in experiment [3] is T1, V-ATPase (Bos taurus, UniProt P31404).
T1 construct: from tissue; host or cells: bovine adrenal medulla chromaffin granule membranes
T1 sequence (P31404 whole entry, looked up): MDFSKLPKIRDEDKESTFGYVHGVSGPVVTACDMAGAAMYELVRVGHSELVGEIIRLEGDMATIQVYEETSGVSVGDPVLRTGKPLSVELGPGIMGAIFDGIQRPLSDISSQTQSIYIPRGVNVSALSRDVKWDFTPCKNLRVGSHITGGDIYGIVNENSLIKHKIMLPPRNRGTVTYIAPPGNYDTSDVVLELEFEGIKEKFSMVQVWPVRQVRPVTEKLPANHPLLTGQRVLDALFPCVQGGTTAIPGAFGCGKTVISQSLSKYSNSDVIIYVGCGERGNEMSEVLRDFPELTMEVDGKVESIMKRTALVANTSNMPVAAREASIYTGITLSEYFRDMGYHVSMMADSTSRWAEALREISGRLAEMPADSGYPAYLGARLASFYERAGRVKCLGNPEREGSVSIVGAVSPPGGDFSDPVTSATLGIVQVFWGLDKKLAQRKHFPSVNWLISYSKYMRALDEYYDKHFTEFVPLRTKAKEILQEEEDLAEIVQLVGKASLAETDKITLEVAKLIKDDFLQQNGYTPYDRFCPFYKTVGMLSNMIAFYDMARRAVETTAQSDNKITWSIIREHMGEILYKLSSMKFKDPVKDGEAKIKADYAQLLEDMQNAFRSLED
As to the kind of experiment: ATP-dependent proton transport by V-ATPase (acridine orange / oxonol-V fluorescence quenching). Type of experiment: biochemical, bovine. The protocol: as §1
ATP-dependent proton transport by V-ATPase was measured according to Reference B. Proton transport activity was measured using a spectrofluorometer at excitation wavelength of 492 nm and a fluorescence wavelength 540 nm, wherein fluorescence quenching of acridine orange was used as an index (N = 2). The transmembrane potential generated was measured using a spectrofluorometer at an excitation wavelength of 580 nm and a fluorescence wavelength of 630 nm, wherein fluorescence quenching of oxonol-V was used as an index (N = 2). The acridine measurement liquid (2 ml) contained 20 mM MOPS-tris (pH 7.0), 0.2 M sucrose, 0.1 M potassium chloride, 5 mM magnesium acetate, 0.2 µg valinomycin, 2 µM acridine orange, and about 20 µg of chromaffin granules. The oxonol-V measurement liquid (2 ml) contained 20 mM MOPS-tris (pH 7.0), 0.3 M sucrose, 5 mM magnesium acetate, 5 µM oxonol-V, and about 20 µg of chromaffin granules.
as §2

For experiment [4], the system named is ATP transport activity in isolated chromaffin granule membranes. Description: ATP transport (3H-ATP uptake) in chromaffin granule membrane vesicles. It is filed as biochemical, bovine. To be noted: MANT-ATP; N = 3.
For experiment [5], the system named is human epidermal keratinocytes. Description: ATP secretion promoted by ionomycin in keratinocytes. It is filed as cell-based. To be noted: 0.1 µM, 6 hours incubation, N = 3. How it is done: Human epidermal keratinocytes (Cryopreserved HEK, Lot 1758, Cell Applications Inc.) were cultured using an Epivita Keratinocyte Growth Medium Kit according to the manufacturer's instructions. The procedure was as follows. A supplement medium was added to a hydrocortisone-containing basal medium included in the medium preparation kit to prepare a complete medium. The medium in the dish was removed by aspiration. The cells were washed with 5 ml of BSS (Gbco), and then the BSS was removed by aspiration. After addition of 5 to 6 ml of trypsin/EDTA solution (Gbco), the dish was incubated at 37°C for 2 minutes. After addition of 5 ml of trypsin neutralization solution, the resulting cell suspension was transferred into two 15-ml Falcon tubes, and centrifuged at 200 × g for 5 minutes. The supernatant was removed by aspiration, and the pelleted cell cluster was suspended in 2 ml of the medium at 4.5 × 10^5 cells/ml. An aliquot of the resulting cell suspension was cryopreserved, while another aliquot was cultured and subjected to measurement.
ATP secretion by human epidermal keratinocytes (hereinafter referred to as "keratinocytes") was measured. Regarding control solutions, Krebs-Ringer HEPES supplemented with 0.2% BSA and 25 mM glucose (hereinafter also referred to as "Krebs/Iono(-)") was used as a negative control, and a solution prepared by adding 5 µM ionomycin to this solution (hereinafter also referred to as "Krebs/Iono(+)") was used as a positive control for ATP secretion. Ionomycin is a Ca^2+ ionophore. Addition of ionomycin to cells is known to promote influx of extracellular Ca^2+ into the cells to increase the intracellular Ca^2+ concentration, resulting in enhancement of ATP secretion. Test solutions were prepared by adding clodronate to Krebs/Iono(-) or Krebs/Iono(+) to a final concentration of 0.1 µM (hereinafter also referred to as "Clo/Iono(-)" or "Clo/Iono(+)", respectively) (N = 3).
Keratinocytes were cultured at 2.5 × 10^4 cells/well in a 24-well plate at 37°C in 5% CO2 for 4 days. The medium was removed by aspiration, replaced with Krebs/Iono(-) or Clo/Iono(-), and incubated at 37°C for 6 hours. These solutions were then removed by aspiration, and the content of each well incubated with Krebs/Iono(-) was replaced with 300 µl of a control solution (Krebs/Iono(-) or Krebs/Iono(+)), while the content of each well incubated with Clo/Iono(-) was replaced with 300 µl of a test solution (Clo/Iono(-) or Clo/Iono(+)). After further incubation at 37°C for 20 minutes, 200 µl of the supernatant was collected. The collected supernatant was immediately treated on a heat block at 95°C for 10 minutes, to inactivate ectonucleotidase. ATP in the supernatant was quantified using a Dojindo ATP assay kit - Luminescence (manufactured by Dojindo Laboratories).
After culturing keratinocytes, the medium was removed by aspiration, and replaced with Krebs/Iono(-), or Krebs/Iono(-) supplemented with 10 µM imeglimin, 0.1 µM EPA, 1 µM EPA, or 10 µM clodronate, followed by incubation for 6 hours. Subsequently, the solution was replaced with either a control solution (Krebs/Iono(-) or Krebs/Iono(+)) or a test solution (Krebs/Iono(+) supplemented with 10 µM imeglimin, 0.1 µM EPA, 1 µM EPA, or 10 µM clodronate), followed by incubation at 37°C for 20 minutes and then collection of 200 µl of the supernatant. The collected supernatant was immediately treated on a heat block at 95°C for 10 minutes to inactivate ectonucleotidase. ATP in the supernatant was quantified using a Dojindo ATP assay kit - Luminescence (manufactured by Dojindo Laboratories).
Keratinocytes were cultured in the same manner as in Example 1, and the medium was replaced with Krebs/Iono(-), Krebs/Iono(-) supplemented with 0.1 µM, 1 µM, or 10 µM imeglimin, or Krebs/Iono(-) supplemented with 0.1 µM, 1 µM, or 10 µM metformin, followed by incubation for 6 hours. […]

Experiment [6] relates to human epidermal keratinocytes. Description: LPS-stimulated ATP secretion in keratinocytes. Type of experiment: cell-based. To be noted: 10 µM; 18 hours incubation, LPS 10 µg/ml 10 minutes; N = 8. How it is done: Keratinocytes were cultured in the same manner as in Example 1. Keratinocytes were cultured at 2.5 × 10^4 cells/well in a 24-well plate at 37°C in 5% CO2 for 4 days. The medium was replaced with a test solution (Hanks' balanced salt solution (HBSS) (manufactured by Gibco) supplemented with imeglimin, metformin, or clodronate), and then incubation was performed at 37°C in 5% CO2 for 18 hours. Thereafter, LPS (10 µg/ml) was added thereto, and incubation was further carried out for 10 minutes, followed by collection of 200 µl of the supernatant. The supernatant was immediately treated on a heat block at 95°C for 10 minutes, and ATP in the supernatant was quantified using an ATP Assay Kit - Luminescence (manufactured by Dojindo) (N = 8).

Experiment [7] deals with T2, VNUT (Homo sapiens, UniProt Q9BYT1).
T2 sequence (Q9BYT1 1-436): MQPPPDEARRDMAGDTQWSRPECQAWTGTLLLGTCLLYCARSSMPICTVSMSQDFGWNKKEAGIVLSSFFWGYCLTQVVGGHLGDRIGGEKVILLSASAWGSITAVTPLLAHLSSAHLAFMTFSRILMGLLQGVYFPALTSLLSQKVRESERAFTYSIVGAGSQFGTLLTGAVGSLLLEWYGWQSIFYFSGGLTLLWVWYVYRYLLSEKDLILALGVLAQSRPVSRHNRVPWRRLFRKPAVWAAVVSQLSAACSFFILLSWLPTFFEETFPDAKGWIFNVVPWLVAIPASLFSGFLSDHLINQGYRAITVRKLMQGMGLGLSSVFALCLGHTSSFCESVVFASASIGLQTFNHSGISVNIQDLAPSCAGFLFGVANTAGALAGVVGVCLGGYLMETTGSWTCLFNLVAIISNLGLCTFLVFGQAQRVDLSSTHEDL
Description: Inhibitory effect on VNUT (data not shown). It is filed as biochemical.

Experiment [8] deals with V-ATPase (Homo sapiens, UniProt P38606). As to the kind of experiment: Inhibitory effect on V-ATPase (data not shown). Type of experiment: biochemical.
Sequence of V-ATPase (Homo sapiens, UniProt P38606) (P38606 whole entry): as the sequence (P31404 whole entry, looked up) above, with R10L, V131I, N157S, I199V, S204T, E576D, V590L, A599S counted along it

Structures can show the parent of a compound that is named as a salt.

Turning to `CNc1ccccc1C(=O)O[C@H]1[C@@H](O)[C@H](n2cnc3c(N)ncnc32)O[C@@H]1COP(=O)(O)OP(=O)(O)OP(=O)(O)O` [MANT-ATP, 2'/3'-O-(N-methyl-anthraniloyl)-adenosine-5'-triphosphate triethylammonium salt], the “ID50 of ATP transport” value in experiment [1] was “about 30 mM”. Also, the “effect on the catecholamine transport system” value in experiment [2] is “hardly affected”. Besides, the “quenching of acridine orange fluorescence with MANT-ATP as substrate” value in experiment [3] (addition of 0.1mM MANT-ATP, before addition of ATP) is 34%. Further, the “effect on ATP-dependent proton transport by V-ATPase” value in experiment [3] (concentrations of up to 100 µM, N = 1) is given as “did not affect”. In addition, the “inhibition of ATP transport” value in experiment [4] is “strongly inhibited ATP transport”.
For `CN(C)C(=N)N=C(N)N` [metformin], the “ATP secretion inhibitory effect, comparison and concentration dependence” value in experiment [5] (1 µM, 10 µM) is listed as “decreased inhibitory effect at higher concentrations”. In addition, the “ATP secretion inhibitory effect” value in experiment [5] is recorded as “exhibit an ATP secretion inhibitory effect”. In experiment [6], the “ATP secretion upon LPS stimulation” value is given as “almost completely inhibited”. The “inhibitory effect on VNUT” value in experiment [7] is listed as “neither imeglimin nor metformin exhibited a strong inhibitory effect”. Further, the “inhibitory effect on V-ATPase” value in experiment [8] was “neither imeglimin nor metformin exhibited a strong inhibitory effect”.
